Reference: ChEMBL document CHEMBL3751802, “Identification of six new lupane-type triterpenoids from Acanthopanax koreanum leaves and their tyrosinase inhibitory activities” (Bioorg Med Chem Lett, 2016)

Key:
[1] = molecular target: T1, Tyrosinase (Agaricus bisporus) (UniProt O42713); assay: Inhibition of mushroom tyrosinase using L-tyrosine as substrate at >12.5 uM measured every 1 min for 20 mins by spectrophotometric assay relative to control
T1 sequence (whole entry): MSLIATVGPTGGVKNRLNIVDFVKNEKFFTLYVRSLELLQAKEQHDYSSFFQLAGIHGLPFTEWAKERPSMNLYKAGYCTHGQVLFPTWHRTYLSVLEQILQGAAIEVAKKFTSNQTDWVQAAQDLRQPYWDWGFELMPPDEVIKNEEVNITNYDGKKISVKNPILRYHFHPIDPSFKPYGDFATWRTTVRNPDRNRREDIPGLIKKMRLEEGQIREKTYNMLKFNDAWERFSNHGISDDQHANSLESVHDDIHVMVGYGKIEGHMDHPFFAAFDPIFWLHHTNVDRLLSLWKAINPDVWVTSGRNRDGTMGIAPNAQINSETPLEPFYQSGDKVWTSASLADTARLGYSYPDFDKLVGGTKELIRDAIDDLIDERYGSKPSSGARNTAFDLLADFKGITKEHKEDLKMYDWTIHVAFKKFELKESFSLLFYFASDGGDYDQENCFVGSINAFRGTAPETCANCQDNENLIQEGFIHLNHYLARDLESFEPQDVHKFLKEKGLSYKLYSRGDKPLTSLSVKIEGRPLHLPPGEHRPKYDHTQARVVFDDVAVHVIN

Tyrosinase = molecular target: T2, Tyrosinase (Agaricus bisporus, UniProt O42713); assay: Inhibition of mushroom tyrosinase using L-tyrosine as substrate measured every 1 min for 20 mins by spectrophotometric assay
T2 sequence (O42713 whole entry): T1 sequence (whole entry)

| SMILES | inhibition [1] [%] | IC50 (Tyrosinase) [µM] |
| --- | --- | --- |
| C=C(CO)[C@@H]1CC[C@]2(C(=O)O)CC[C@]3(C)[C@H](C[C@@H](O)[C@@H]4[C@@]5(C)CC[C@@H](O)[C@@](C)(C(=O)O)[C@@H]5CC[C@]43C)[C@@H]12 | < 100 |  |
| CC(=O)[C@@H]1CC[C@]2(C(=O)O)CC[C@]3(C)[C@H](C[C@@H](O)[C@@H]4[C@@]5(C)CC[C@@H](O)C(C)(C(=O)O)[C@@H]5CC[C@]43C)[C@@H]12 (some centres not stated) | < 100 |  |
| COC(OC)[C@H](C)[C@@H]1CC[C@]2(C(=O)O)CC[C@]3(C)[C@H](CC[C@@H]4[C@@]5(C)CC[C@@H](O)[C@@](C)(C(=O)O)[C@@H]5CC[C@]43C)[C@@H]12 | < 100 |  |
| C=C(C)[C@@H]1CC[C@]2(C(=O)O)CC[C@]3(C)[C@H](CC[C@@H]4[C@@]5(C)CC[C@@H](O)[C@@](C)(C=O)[C@@H]5CC[C@]43C)[C@@H]12 | < 100 | 25.8 |
| C[C@H](CO)[C@@H]1CC[C@]2(C(=O)O)CC[C@]3(C)[C@H](CC[C@@H]4[C@@]5(C)CC[C@@H](O)[C@@](C)(C=O)[C@@H]5C[C@H](O)[C@]43C)[C@@H]12 | < 100 |  |
| C[C@@]12CCC[C@@](C)(C(=O)O[C@@H]3O[C@H](CO)[C@@H](O)[C@H](O)[C@H]3O)[C@H]1CC[C@@]13C[C@H](CC[C@H]12)[C@@](O)(CO)C3 | < 100 |  |
| CC1=CC[C@@H](C(C)(C)O[C@@H]2O[C@H](CO)[C@@H](O)[C@H](O)[C@H]2O)CC1 | < 100 | 16.9 |
| C=C(CO)[C@@H]1CC[C@]2(C(=O)O)CC[C@]3(C)[C@H](C[C@@H](O)[C@@H]4[C@@]5(C)CC[C@@H](O)C(C)(C)[C@@H]5CC[C@]43C)[C@@H]12 | < 100 |  |
| C[C@]12CC[C@@H](O)[C@@](C)(C(=O)O)[C@@H]1CC[C@]1(C)[C@@H]2CC[C@@H]2[C@H]3[C@H]([C@](C)(O)CO)CC[C@]3(C(=O)O)CC[C@]21C | < 100 | 8.61 |
| C=C(CO)[C@@H]1CC[C@]2(C(=O)O)CC[C@]3(C)[C@H](C[C@@H](O)[C@@H]4[C@@]5(C)CC[C@@H](O)[C@@](C)(C=O)[C@@H]5CC[C@]43C)[C@@H]12 | < 100 | 63.5 |
| C=C(C)[C@@H]1CC[C@]2(C(=O)O)CC[C@]3(C)[C@H](C[C@@H](O)[C@@H]4[C@@]5(C)CC[C@@H](O)C(C)(C=O)[C@@H]5CC[C@]43C)[C@@H]12 (some centres not stated) | < 100 |  |
| C[C@H](C=O)[C@@H]1CC[C@]2(C(=O)O)CC[C@]3(C)[C@H](CC[C@@H]4[C@@]5(C)CC[C@@H](O)[C@@](C)(C(=O)O)[C@@H]5CC[C@]43C)[C@@H]12 | < 100 |  |
| C=C(C)[C@@H]1CC[C@]2(C(=O)O)CC[C@]3(C)[C@H](CC[C@@H]4[C@@]5(C)CC[C@@H](O)C(C)(C(=O)O)[C@@H]5CC[C@]43C)[C@@H]12 (some centres not stated) | < 100 |  |
